Paper PMC3679074, “Ligand Binding and Signaling of Dendritic Cell Immunoreceptor (DCIR) Is Modulated by the Glycosylation of the Carbohydrate Recognition Domain” (PLoS ONE, 2013)
Residue numbers refer to the chain shown, from its start.

Experiments:
DCIR-Fc [1] = target: T1, DCIR-Fc (Homo sapiens, UniProt Q9UMR7); experiment: ELISA, biotinylated neoglycoconjugate on immobilized Fc protein; type: binding
T1 construct: gene CLEC4A; extracellular domain fused at C terminus to human IgG1 Fc (tag); produced in CHO or CHO Lec8 cells, protein A purified; 'residues 208-689' [sic]
T1 sequence (Q9UMR7 70-230): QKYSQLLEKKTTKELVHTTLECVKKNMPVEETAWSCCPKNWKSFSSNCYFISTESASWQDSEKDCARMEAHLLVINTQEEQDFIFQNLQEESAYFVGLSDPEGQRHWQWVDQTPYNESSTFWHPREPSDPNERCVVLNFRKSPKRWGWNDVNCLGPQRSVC

DCIR-Fc [2] = target: T2, DCIR-Fc (Homo sapiens, UniProt Q9UMR7, N185Q); experiment: ELISA, soluble Fc protein on coated neoglycoconjugate; type: binding; conditions: 50 µg/ml Fc protein, room temperature; multivalent PAA conjugate; mutant lacks CRD N-glycan
T2 construct: gene CLEC4A; extracellular domain fused at C terminus to human IgG1 Fc (tag); produced in CHO or CHO Lec8 cells, protein A purified; 'residues 208-689' [sic]
T2 sequence (Q9UMR7 70-230 N185Q): T1 sequence (Q9UMR7 70-230) with N116Q

Compound	ELISA, biotinylated neoglycoconjugate on immobilized Fc protein (DCIR-Fc [1]; pH 7.4, Ca2+/Mg2+, room temperature, labelled compound (multivalent biotinylated PAA conjugate), EGTA-sensitive)	ELISA, soluble Fc protein on coated neoglycoconjugate (DCIR-Fc [2])	ELISA, biotinylated neoglycoconjugate on immobilized Fc protein (DCIR-Fc [1]; labelled compound (multivalent biotinylated PAA conjugate, 5 µg/ml), EGTA control subtracted)
CC(=O)N[C@H]1C(O)O[C@H](CO)[C@@H](O[C@@H]2O[C@@H](C)[C@@H](O)[C@@H](O)[C@@H]2O)[C@@H]1O[C@@H]1O[C@H](CO)[C@H](O)[C@H](O)[C@H]1O[C@@H]1O[C@@H](C)[C@@H](O)[C@@H](O)[C@@H]1O (stereo partly drawn) [Lewis^b]	We observed CLR-specific binding of Man3 and Lewis^b to immobilized DCIR-Fc	strongly interacted with immobilized Lewis^b and Man3	–
CC(=O)N[C@H]1C(O)O[C@H](CO)[C@@H](O[C@@H]2O[C@@H](C)[C@@H](O)[C@@H](O)[C@@H]2O)[C@@H]1O[C@@H]1O[C@H](CO)[C@H](O)[C@H](OS(=O)(=O)O)[C@H]1O (stereo partly drawn) [sulfo-Lewis^a]	–	–	immobilized glycosylated DCIR-Fc could interact with sulfo-Lewis^a
